Experiments:
[1] = Encapsulation efficiency of thin-shell polymeric nanoparticles; format: physicochemical; conditions: for encapsulation efficiency: cargo in thin-shell hollow PLGA nanoparticles
[2] = test system: B16-OVA tumors; test: Adjuvant retention in tumors and cancer cells after intratumoral injection; format: in vivo, B6 mice; conditions: intra-tumoral, 24 hours
Procedure: To validate cell-associating effect of the nanoparticle adjuvant formulation, B6 mice were inoculated subcutaneously with B16-OVA tumors. Nanoparticle-mediated adjuvant retention with the B16 cells was validated using whole body imaging, flow cytometric analysis, and fluorescence microscopy. Dye-labelled STING agonist (2′-[DY-547]-AHC-c-diGMP) was administered in its free form and nanoparticle form intra-tumorally and examined after 24 hours.

[3] = test system: HeLa cells; test: Association of cGAMP adjuvant with HeLa cells and cisplatin-induced debris (confocal, FACS); format: cell-based
[4] = test system: B16-OVA tumors; test: Tumor treatment efficacy of adjuvant plus cisplatin, B16-OVA subcutaneous model; format: in vivo, B6 mice; conditions: intra-tumoral treatment
Procedure: To study the in vivo efficiency of the treatment modality, B6 mice were inoculated subcutaneously with B16-OVA tumors. When the tumors appeared palpable, they were pre-treated with free cGAMP or cGAMP-loaded nanoparticles prior to chemotherapy by cisplatin (CTTP). 24 hours following intra-tumoral adjuvant administration, the mice were given an intra-tumoral cisplatin injection to induce cell death (FIG. 9(a)). These two groups are designated cGAMP+CTTP and NP+CTTP to differentiate the use of free cGAMP and cGAMP-loaded nanoparticles, respectively. For controls, tumor-bearing mice receiving no treatment (placebo), cistplatin only (CTTP only) and cGAMP-loaded nanoparticles only (NP only) were also prepared. For cGAMP administration, 2.5 μg of the adjuvant was administered in 50 μL of solution. For cisplatin administration, 235 μg of the chemodrug was administered in 100 μL of solution. Following the different treatments, the tumor volumes were monitored over time. […] In contrast, no other group had any tumor with complete regression (FIG. 9(b), (c)). […] With the tumor-free surviving mice from the NP+CTTP group, 4 of them were re-challenged with B16-OVA cells on day 60 and compared to animals that had no prior tumor challenge and treatment.

[5] = In vivo immune potentiation after footpad injection (lymph node IFN-β, serum TNF-α); conditions: after footpad administration, mice
Procedure: Immune potentiation by the cd-GMP nanoparticles was further compared to free cd-GMP in vivo in mice. 48 hours following footpad injections, the draining popliteal lymph nodes were collected for IFN-β quantification. […] In addition, the systemic level of TNF-α, an indicator of reactogenicity, was also monitored following the footpad administration of free cd-GMP and cd-GMP nanoparticles.

## dye-labelled BSA: dye-labelled bovine serum albumin cargo
[1]
  encapsulation efficiency: 35%

## 2′-[DY-547]-AHC-c-diGMP [free adjuvant]
[2]; flow cytometry and confocal microscopy of extracted cells
  adjuvant association within the cancer cells: little adjuvant retention
[2]; whole body imaging
  adjuvant retention inside the tumor: little adjuvant retention

## Nc1nc2c(ncn2[C@@H]2O[C@@H]3COP(=O)(O)O[C@H]4[C@@H](O)[C@H](n5cnc6c(N)ncnc65)O[C@@H]4COP(=O)(O)O[C@@H]2[C@@H]3O)c(=O)[nH]1 [free cGAMP, 2′3′-cGAMP]
[3]
  capacity to associate with the cells: little capacity

## N.N.[Cl][Pt][Cl] [CTTP only, cisplatin]
[4]
  tumor regression: neither CTTP only nor NP only treatment induced tumor regression

## Nc1nc2c(ncn2[C@@H]2O[C@@H]3COP(=O)(O)O[C@H]4[C@@H](O)[C@H](n5cnc6c(=O)[nH]c(N)nc65)O[C@@H]4COP(=O)(O)O[C@H]3[C@H]2O)c(=O)[nH]1 [cyclic di-GMP]
[1]
  encapsulation efficiency: 37%
[1]; listed as cd-GMP
  encapsulation efficiency: about 40%
[1]; loading concentration 8 mM DNA, 50 mg/mL BSA, cd-GMP at about 40% efficiency
  cargo molecules per nanoparticle: approximately 2,000
[5]
  serum level of TNF-α (indicator of reactogenicity): elevated level
